Measurements reported in patent publication US11400106B2, “Methods for inhibiting microbe growth” (priority 2018, dated 2022).
Like-named read-outs stand apart in the source and are kept apart here.

What was measured:
Burkhloderia cenocepacia = assay: MIC determination against Burkhloderia cenocepacia; format: cell-based
Experimental: (§1) In the following experiments, bacterial cells were cultured in 96-well microtiter plates in cation-adjusted Mueller-Hinton Broth (MHB) for 18 h at 37° C. The main strains used were E. coli (K-12 BW25113) (placed in stationary incubator) and S. aureus (Newman Strain) (incubated at 250 r.p.m). Knockout strains (ΔtolcC and ΔychM) were used from the Keio knockout collection (Baba et al., Construction of Escherichia coli K-12 in-frame, single-gene knockout mutants: the Keio collection. Mol Syst Biol 2, 2006 0008, doi:10.1038/msb4100050 (2006)). For MIC determination and checkerboard analyses, Clinical & Laboratory Standards Institute (CLSI) protocol was used. […] DiSC3 loading of S. aureus cells was performed as previously described (Farha et al., Collapsing the proton motive force to identify synergistic combinations against Staphylococcus aureus. Chemistry & biology 20, 1168-1178, doi:10.1016/j.chembiol.2013.07.006 (2013)). CCCP concentration of 20 μM was used. pH adjustments were made by addition of HCl or NaOH. INT assay and ATP bioluminescence assays were performed as previously described (Farha et al., Collapsing the proton motive force to identify synergistic combinations against Staphylococcus aureus. Chemistry & biology 20, 1168-1178, doi:10.1016/j.chembiol.2013.07.006 (2013)). […]

E. coli [1] = assay: microbe, parasite or virus in culture; format: cell-based, Escherichia coli
Burkhloderia multivorans = assay: MIC determination against Burkhloderia multivorans; format: cell-based
Experimental: as §1

Pseudomonas aeruginosa = assay: MIC determination against Pseudomonas aeruginosa; format: cell-based
Experimental: (§2) In the following experiments, bacterial cells were cultured in 96-well microtiter plates in cation-adjusted Mueller-Hinton Broth (MHB) for 18 h at 37° C. The main strains used were E. coli (K-12 BW25113) (placed in stationary incubator) and S. aureus (Newman Strain) (incubated at 250 r.p.m). Knockout strains (ΔtolcC and ΔychM) were used from the Keio knockout collection (Baba et al., Construction of Escherichia coli K-12 in-frame, single-gene knockout mutants: the Keio collection. Mol Syst Biol 2, 2006 0008, doi:10.1038/msb4100050 (2006)). For MIC determination and checkerboard analyses, Clinical & Laboratory Standards Institute (CLSI) protocol was used. […] DiSC3 loading of S. aureus cells was performed as previously described (Farha et al., Collapsing the proton motive force to identify synergistic combinations against Staphylococcus aureus. Chemistry & biology 20, 1168-1178, doi:10.1016/j.chembiol.2013.07.006 (2013)). CCCP concentration of 20 μM was used. pH adjustments were made by addition of HCl or NaOH. INT assay and ATP bioluminescence assays were performed as previously described (Farha et al., Collapsing the proton motive force to identify synergistic combinations against Staphylococcus aureus. Chemistry & biology 20, 1168-1178, doi:10.1016/j.chembiol.2013.07.006 (2013)). For chemical-genomic studies, the Keio library was grown overnight in cation-adjusted MHB broth, in 384-well plates. From these, treatment plates (25 mM sodium bicarbonate, or a sterile water control) were inoculated and grown for 15 hours at 37° C., in a stationary incubator. Data was normalized according to Mangat et al (Mangat et al., Rank ordering plate data facilitates data visualization and normalization in high-throughput screening. J Biomol Screen 19, 1314-1320, doi:10.1177/1087057114534298 (2014)), with gene products and GO terms mined from EcoCyc. […]

Acinetobacter baumannii = assay: MIC determination against Acinetobacter baumannii; format: cell-based; details: for MIC: Acinetobacter baumannii
Experimental: (§3) In the following experiments, bacterial cells were cultured in 96-well microtiter plates in cation-adjusted Mueller-Hinton Broth (MHB) for 18 h at 37° C. The main strains used were E. coli (K-12 BW25113) (placed in stationary incubator) and S. aureus (Newman Strain) (incubated at 250 r.p.m). Knockout strains (ΔtolcC and ΔychM) were used from the Keio knockout collection (Baba et al., Construction of Escherichia coli K-12 in-frame, single-gene knockout mutants: the Keio collection. Mol Syst Biol 2, 2006 0008, doi:10.1038/msb4100050 (2006)). For MIC determination and checkerboard analyses, Clinical & Laboratory Standards Institute (CLSI) protocol was used. […] DiSC3 loading of S. aureus cells was performed as previously described (Farha et al., Collapsing the proton motive force to identify synergistic combinations against Staphylococcus aureus. Chemistry & biology 20, 1168-1178, doi:10.1016/j.chembiol.2013.07.006 (2013)). CCCP concentration of 20 μM was used. pH adjustments were made by addition of HCl or NaOH. INT assay and ATP bioluminescence assays were performed as previously described (Farha et al., Collapsing the proton motive force to identify synergistic combinations against Staphylococcus aureus. Chemistry & biology 20, 1168-1178, doi:10.1016/j.chembiol.2013.07.006 (2013)). For chemical-genomic studies, the Keio library was grown overnight in cation-adjusted MHB broth, in 384-well plates. From these, treatment plates (25 mM sodium bicarbonate, or a sterile water control) were inoculated and grown for 15 hours at 37° C., in a stationary incubator. Data was normalized according to Mangat et al (Mangat et al., Rank ordering plate data facilitates data visualization and normalization in high-throughput screening. J Biomol Screen 19, 1314-1320, doi:10.1177/1087057114534298 (2014)), with gene products and GO terms mined from EcoCyc. The GFP promoter library (Keseler et al., EcoCyc: fusing model organism databases with systems biology. Nucleic Acids Res 41, D605-612, doi:10.1093/nar/gks1027 (2013)) was grown for 18 hours at ambient temperature with the same inoculation strategy as with the Keio collection. The analysis pipeline of Zaslaver et al (Zaslaver et al., A comprehensive library of fluorescent transcriptional reporters for Escherichia coli. Nat Methods 3, 623-628, doi:10.1038/nmeth895 (2006)) was used to generate maps of promoter activity, from which lists of promoters with increased or decreased activity were compiled.

Klebsiella pneumoniae = assay: MIC determination against Klebsiella pneumoniae; format: cell-based
Experimental: as §2

E. coli [2] = assay: Checkerboard microdilution with sodium bicarbonate against E. coli; format: cell-based, Escherichia coli
Experimental: as §3
The effect of sodium bicarbonate on the activity of various antibacterial agents was investigated. Clinical isolates of various bacteria were obtained from the American Type Culture Collection (“ATCC”) and the International Health Management Associates (“IHMA”). Fractional inhibitory concentration indices (FICIs) were determined by setting up standard checkerboard broth microdilution assays in 96-well microtiter plates with serially diluted 8 (or 10) concentrations of each drug (sodium bicarbonate and the antibacterial agent). The protocol for checkerboard analyses was based on the CLSI guidelines. Plates were incubated at 37° C. for 18 hours, and optical density was read at 600 nm. At least 3 replicates were done for each query compound.
The FIC index (FICI) is the sum of the two FICs. Chemical-chemical interactions with ΣFIC of less or equal to 0.5 were deemed synergistic.
As validation, three of the antibiotic agents were further tested with checkerboard analyses. Checkerboard broth microdilution assays were set up in 96-well microtiter plates with serially diluted 8 (or 10) concentrations of each compound (sodium bicarbonate and the antibiotic). The protocol for checkerboard analyses was based on the CLSI guidelines. Plates were incubated at 37° C. for 18 hours, and optical density was read at 600 nm. At least 3 replicates were done for each query compound.

Enterococcus faecalis = assay: MIC determination against Enterococcus faecalis; format: cell-based
S. aureus = assay: microbe, parasite or virus in culture; details: for MIC: Staphylococcus aureus
A. baumannii [3] = assay: Superficial skin infection model, tape-stripped mice, A. baumannii; format: in vivo, Acinetobacter baumannii; details: 0.5% pentamidine topical, tissue collected 25 hr post-infection
Experimental: (§4) In this model, an infection is established by disrupting the skin barrier through partial removal of the epidermal layer by stripping with adhesive tape and with subsequent application of the pathogen. Tape-stripped mice infected with 4×10^6 CFU/mL A. baumannii (FIG. 4A) or 4×10^6 CFU/mL methicillin-resistant Staphylococcus aureus (MRSA) USA-300 (FIG. 4B). […] This treatment regime was also conducted for the Vehicle (1.9% Boric Acid, pH 7) as a control (n=4). Tissue samples were collected at 25 hr post-infection (FIG. 4A) and 28 hr post-infection (FIG. 4B). […] (FIG. 5).

[4] = test system: methicillin-resistant Staphylococcus aureus (MRSA) USA-300; assay: Superficial skin infection model, tape-stripped mice, MRSA USA-300; format: in vivo
Experimental: as §4

Saccharomyces cerevisiae = assay: MIC of pentamidine against Saccharomyces cerevisiae in YPD medium; format: cell-based
Experimental: Plates were incubated 24 hours and optical density read at 600 nm

A. baumannii [5] = assay: Murine model of systemic A. baumannii infection; format: in vivo, Acinetobacter baumannii; details: mice
Experimental: Mice were treated two-hours post-infection to allow complete organ occupancy by the injected cells.

E. coli MC1061 = assay: Membrane potential dissipation, DiSC3(5) fluorescence spectroscopy; format: cell-based, Escherichia coli; details: E. coli grown in standard growth media or supplemented with 25 mM sodium bicarbonate; compound at MIC
Experimental: E. coli MC1061 cells were washed twice and suspended in a buffer containing 20 mM glucose and 5 mM HEPES (pH 7.2). Final resuspension was diluted to an optical density at 600 nm of 0.085. DiSC3(5) was added at a final concentration of 1 and the dye was left to stabilize (1 hr at 37° C.). Compounds were then injected at concentrations equivalent to their MIC. Fluorescent traces were measured in a fluorimeter (Photon Technology International) at the excitation and emission wavelengths of 622 and 660 nm, respectively.
Briefly, due to the potential gradient, the dye is taken up by bacteria and accumulation in the membrane leads to a decrease in fluorescence intensity due to self-quenching. A subsequent increase in fluorescence intensity is observed only if the dye is displaced into the solution as a result of dissipation of the membrane potential.

E. coli [6] = assay: Gentamicin potency analysis with CCCP pre-treatment; format: cell-based, Escherichia coli; details: 25 mM sodium bicarbonate, CCCP pre-treated cells
Experimental: In the following experiments, bacterial cells were cultured in 96-well microtiter plates in cation-adjusted Mueller-Hinton Broth (MHB) for 18 h at 37° C. The main strains used were E. coli (K-12 BW25113) (placed in stationary incubator) and S. aureus (Newman Strain) (incubated at 250 r.p.m). […] For MIC determination and checkerboard analyses, Clinical & Laboratory Standards Institute (CLSI) protocol was used. […] DiSC3 loading of S. aureus cells was performed as previously described (Farha et al., Collapsing the proton motive force to identify synergistic combinations against Staphylococcus aureus. Chemistry & biology 20, 1168-1178, doi:10.1016/j.chembiol.2013.07.006 (2013)). CCCP concentration of 20 μM was used. pH adjustments were made by addition of HCl or NaOH. INT assay and ATP bioluminescence assays were performed as previously described (Farha et al., Collapsing the proton motive force to identify synergistic combinations against Staphylococcus aureus. Chemistry & biology 20, 1168-1178, doi:10.1016/j.chembiol.2013.07.006 (2013)). For chemical-genomic studies, the Keio library was grown overnight in cation-adjusted MHB broth, in 384-well plates. […]

[7] = read-out: MIC, tissue culture media formulated to mimic the natural environment

N=C(N)c1ccc(OCCCCCOc2ccc(C(=N)N)cc2)cc1 [pentamidine isethionate]
MIC (Burkhloderia cenocepacia; read-out: MIC, MHB): > 200 µg/mL | MIC (Burkhloderia cenocepacia; [7]): 12.5 µg/mL | MIC, tissue culture media formulated to mimic the natural environment (E. coli [1]; Escherichia coli): 1.5 µg/mL | MIC (E. coli [1]; Escherichia coli, Mueller Hinton Broth, read-out: MIC, MHB): 200 µg/mL | MIC (E. coli [1]; Escherichia coli, read-out: MIC, tissue culture media formulated to mimic the natural environment): 1 µg/mL | MIC (Burkhloderia multivorans; read-out: MIC, MHB): > 200 µg/mL | MIC (Burkhloderia multivorans; [7]): 12.5 µg/mL | MIC (Pseudomonas aeruginosa; read-out: MIC, MHB): > 200 µg/mL | MIC (Pseudomonas aeruginosa; [7]): 12.5 µg/mL | enhanced potency in tissue culture media formulated to mimic the natural environment (Acinetobacter baumannii; A. baumannii, versus standard media): > 50 fold | MIC (Acinetobacter baumannii; read-out: MIC, MHB): 100 µg/mL | MIC (Acinetobacter baumannii; [7]): 12.5 µg/mL | MIC (Klebsiella pneumoniae; read-out: MIC, MHB): > 200 µg/mL | MIC (Klebsiella pneumoniae; [7]): 12.5 µg/mL | interaction with sodium bicarbonate (checkerboard) (E. coli [2]): greatly potentiated | MIC (Enterococcus faecalis; read-out: MIC, MHB): 25 µg/mL | MIC (Enterococcus faecalis; [7]): 3.1 µg/mL | MIC (S. aureus; read-out: MIC, MHB): 12.5 µg/mL | MIC (S. aureus; [7]): < 0.1 µg/mL

N=C(N)c1ccc(OCCCCCOc2ccc(C(=N)N)cc2)cc1 [pentamidine]
potentiation of antibacterial activity in the presence of bicarbonate, on average (Gram-negative organisms): 40 fold | reduction in CFU/mL compared to vehicle-treated mice (A. baumannii [3]): 4 log | potentiation of antibacterial activity in the presence of bicarbonate, on average (Gram-positive organisms): 50 fold | reduction in CFU/mL ([4]; 0.5% pentamidine topical, tissue collected 28 hr post-infection): 5 log | effect of addition of bicarbonate (50 mM) on antibacterial efficacy in clearing an MRSA infection ([4]; topical 0.5% aqueous pentamidine solution with or without bicarbonate (50 mM)): increased the antibacterial efficacy | interaction with sodium bicarbonate (checkerboard) (E. coli [2]): synergistic interaction | MIC (Saccharomyces cerevisiae; 25 mM sodium bicarbonate): 4 µg/mL | MIC (Saccharomyces cerevisiae; 50 mM sodium bicarbonate): 2 µg/mL | MIC (Saccharomyces cerevisiae; no sodium bicarbonate): 256 µg/mL | rescue of animals (A. baumannii [5]; 50 mg/kg pentamidine IP, single dose 2 h post-infection, in the absence of novobiocin): 80% | A. baumannii organ load (e.g., spleen) decrease (A. baumannii [5]; pentamidine alone): seven | effect on membrane potential (E. coli MC1061): dissipated the membrane potential

Gentamicin
Fold, E. coli (E. coli [1]): 8 | Fold, S. aureus (S. aureus): 2 | MIC, S. aureus, MHB− (S. aureus; MHB in the absence of sodium bicarbonate): 2 | MIC, S. aureus, MHB+ (S. aureus; MHB in the presence of 25 mM sodium bicarbonate): 1 | effect of CCCP pre-incubation on potentiation by sodium bicarbonate (E. coli [6]): reversed the potentiation
